Experimental data: patent publication US20260297085A1, “1 H-PYRROLO[2,3-B]PYRIDIN-4-YL]-2-OXOPYRROLIDINE-3-CARBONITRILE DERIVATIVES AS TYROSINE KINASE 2 (TYK2) INHIBITORS FOR THE TREATMENT OF INFLAMMATORY DISEASES” (BIOGEN MA INC., priority 2023, published 2026)
Counter-ions that a name gives are not always drawn.

Experiments:
[1] = target: JAK1 kinase activity on STAT3 in TF1 cells (Homo sapiens, UniProt P23458); assay: pSTAT3 cell assay (MSD; TF1 cells, 30 ng/mL IL-6 stimulation); assay type: cell-based; settings: 30 ng/mL IL-6, 15 minutes
Outline: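 Readout is pSTAT3 in lysates, quantified on an MSD plate assay using anti-STAT3 antibodies. Before lysis, TF1 cells had been serum-starved, exposed to compound for 1 hour across ten four-fold dilutions starting at 10 μM, and given IL-6 for 15 minutes.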

[2] = target: T1, human JAK2 kinase domain (JH1) (Homo sapiens, UniProt O60674); assay: JH1 biochemical assay for JAK2 (ADP-Glo kinase assay, recombinant JH1 catalytic domain, JAK3-974 peptide, 15 μM ATP)
T1 construct: recombinantly generated catalytic kinase (also known as JH1) domain of human JAK1, JAK2, JAK3 and TYK2
Outline: (§1)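 Compounds were titrated in 11 points of 3-fold dilution starting at 10 μM or 1 μM. Enzyme (JAK1 4 nM, JAK2 0.2 nM, JAK3 0.3 nM, TYK2 2 nM) and 50 μM peptide reacted for 100 minutes, followed by ADP-to-luminescence detection; IC50 by 4-parameter fit.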

[3] = target: Tyk2 kinase activity on STAT4 in NK92 cells (Homo sapiens, UniProt P29597); assay: pSTAT4 cell assay (MSD; NK92 cells, 30 ng/mL IL2 stimulation); assay type: cell-based; settings: 30 ng/mL IL2, 15 minutes
Outline: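 NK92, serum-starved; cpd 1 hr, 10-pt 4-fold from 10 μM; IL2 30 ng/mL 15 min; lyse; MSD with anti-STAT4 Abs; IC50 by 4-PL fit.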

[4] = target: JAK2 kinase activity on STAT5 in TF1 cells (Homo sapiens, UniProt O60674); assay: pSTAT5 cell assay (MSD; TF1 cells, 30 ng/mL IL-3 stimulation); assay type: cell-based; settings: 30 ng/mL IL-3, 15 minutes
Outline: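 Serum-starved TF1 cells with native JAK2/STAT5 were pretreated 1 h with compound (10-point four-fold dilutions from 10 μM), then stimulated 15 min with 30 ng/mL IL-3. pSTAT5 in lysates quantified by MSD immunoassay; normalized percent activity fitted to a 4-parameter logistic curve for IC50.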

[5] = target: T2, human JAK3 kinase domain (JH1) (Homo sapiens, UniProt P52333); assay: JH1 biochemical assay for JAK3 (ADP-Glo kinase assay, recombinant JH1 catalytic domain, JAK3-974 peptide, 4 μM ATP)
T2 construct: recombinantly generated catalytic kinase (also known as JH1) domain of human JAK1, JAK2, JAK3 and TYK2
Outline: as §1

[6] = target: T3, human TYK2 kinase domain (JH1) (Homo sapiens, UniProt P29597); assay: JH1 biochemical assay for TYK2 (ADP-Glo kinase assay, recombinant JH1 catalytic domain, JAK3-974 peptide, 10 μM ATP)
T3 construct: recombinantly generated catalytic kinase (also known as JH1) domain of human JAK1, JAK2, JAK3 and TYK2
T3 sequence (P29597 897-1176 limits assumed): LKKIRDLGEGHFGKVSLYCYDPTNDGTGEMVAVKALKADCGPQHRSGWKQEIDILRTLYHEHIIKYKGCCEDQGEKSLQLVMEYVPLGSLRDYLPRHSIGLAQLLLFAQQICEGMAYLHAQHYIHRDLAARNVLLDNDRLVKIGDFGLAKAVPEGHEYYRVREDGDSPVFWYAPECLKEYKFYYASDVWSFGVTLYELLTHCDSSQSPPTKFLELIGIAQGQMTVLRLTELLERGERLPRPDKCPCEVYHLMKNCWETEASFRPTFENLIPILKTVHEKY
Outline: as §1

[7] = target: T4, human JAK1 kinase domain (JH1) (Homo sapiens, UniProt P23458); assay: JH1 biochemical assay for JAK1 (ADP-Glo kinase assay, recombinant JH1 catalytic domain, JAK3-342 peptide, 35 μM ATP)
T4 construct: recombinantly generated catalytic kinase (also known as JH1) domain of human JAK1, JAK2, JAK3 and TYK2
Outline: as §1

Chain of Tyk2 kinase activity on STAT4 in NK92 cells (P29597 whole entry): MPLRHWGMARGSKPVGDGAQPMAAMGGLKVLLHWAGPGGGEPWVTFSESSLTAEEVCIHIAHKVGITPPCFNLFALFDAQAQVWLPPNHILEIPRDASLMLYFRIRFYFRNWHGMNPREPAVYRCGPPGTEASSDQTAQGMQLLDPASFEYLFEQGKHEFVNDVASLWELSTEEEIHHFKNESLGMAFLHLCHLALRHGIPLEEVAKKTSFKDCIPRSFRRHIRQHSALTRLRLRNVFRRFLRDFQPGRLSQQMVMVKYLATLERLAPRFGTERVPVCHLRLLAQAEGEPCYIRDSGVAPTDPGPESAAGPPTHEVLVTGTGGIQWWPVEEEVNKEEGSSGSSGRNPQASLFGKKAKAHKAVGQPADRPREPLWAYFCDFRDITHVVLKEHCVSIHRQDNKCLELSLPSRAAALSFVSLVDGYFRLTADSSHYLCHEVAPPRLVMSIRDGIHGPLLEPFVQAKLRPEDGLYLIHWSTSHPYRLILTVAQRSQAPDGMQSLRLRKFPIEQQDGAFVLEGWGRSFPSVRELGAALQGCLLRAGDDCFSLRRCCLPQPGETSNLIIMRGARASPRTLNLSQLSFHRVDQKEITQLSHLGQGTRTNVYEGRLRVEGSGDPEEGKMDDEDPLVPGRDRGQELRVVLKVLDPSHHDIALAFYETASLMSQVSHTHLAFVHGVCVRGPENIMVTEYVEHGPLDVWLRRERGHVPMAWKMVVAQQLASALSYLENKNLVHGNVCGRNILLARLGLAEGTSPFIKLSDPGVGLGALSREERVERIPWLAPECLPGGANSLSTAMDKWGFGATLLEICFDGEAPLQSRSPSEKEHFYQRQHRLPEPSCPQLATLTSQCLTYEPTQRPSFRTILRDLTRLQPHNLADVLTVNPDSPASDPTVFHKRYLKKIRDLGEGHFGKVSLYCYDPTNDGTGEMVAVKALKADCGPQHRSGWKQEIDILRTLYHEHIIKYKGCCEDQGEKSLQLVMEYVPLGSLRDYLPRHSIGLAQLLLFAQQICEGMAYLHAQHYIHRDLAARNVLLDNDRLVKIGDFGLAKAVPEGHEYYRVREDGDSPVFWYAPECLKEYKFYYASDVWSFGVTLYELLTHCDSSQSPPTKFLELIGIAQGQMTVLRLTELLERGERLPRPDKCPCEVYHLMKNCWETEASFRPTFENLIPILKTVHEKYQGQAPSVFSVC
Chain of JAK1 kinase activity on STAT3 in TF1 cells (P23458 whole entry): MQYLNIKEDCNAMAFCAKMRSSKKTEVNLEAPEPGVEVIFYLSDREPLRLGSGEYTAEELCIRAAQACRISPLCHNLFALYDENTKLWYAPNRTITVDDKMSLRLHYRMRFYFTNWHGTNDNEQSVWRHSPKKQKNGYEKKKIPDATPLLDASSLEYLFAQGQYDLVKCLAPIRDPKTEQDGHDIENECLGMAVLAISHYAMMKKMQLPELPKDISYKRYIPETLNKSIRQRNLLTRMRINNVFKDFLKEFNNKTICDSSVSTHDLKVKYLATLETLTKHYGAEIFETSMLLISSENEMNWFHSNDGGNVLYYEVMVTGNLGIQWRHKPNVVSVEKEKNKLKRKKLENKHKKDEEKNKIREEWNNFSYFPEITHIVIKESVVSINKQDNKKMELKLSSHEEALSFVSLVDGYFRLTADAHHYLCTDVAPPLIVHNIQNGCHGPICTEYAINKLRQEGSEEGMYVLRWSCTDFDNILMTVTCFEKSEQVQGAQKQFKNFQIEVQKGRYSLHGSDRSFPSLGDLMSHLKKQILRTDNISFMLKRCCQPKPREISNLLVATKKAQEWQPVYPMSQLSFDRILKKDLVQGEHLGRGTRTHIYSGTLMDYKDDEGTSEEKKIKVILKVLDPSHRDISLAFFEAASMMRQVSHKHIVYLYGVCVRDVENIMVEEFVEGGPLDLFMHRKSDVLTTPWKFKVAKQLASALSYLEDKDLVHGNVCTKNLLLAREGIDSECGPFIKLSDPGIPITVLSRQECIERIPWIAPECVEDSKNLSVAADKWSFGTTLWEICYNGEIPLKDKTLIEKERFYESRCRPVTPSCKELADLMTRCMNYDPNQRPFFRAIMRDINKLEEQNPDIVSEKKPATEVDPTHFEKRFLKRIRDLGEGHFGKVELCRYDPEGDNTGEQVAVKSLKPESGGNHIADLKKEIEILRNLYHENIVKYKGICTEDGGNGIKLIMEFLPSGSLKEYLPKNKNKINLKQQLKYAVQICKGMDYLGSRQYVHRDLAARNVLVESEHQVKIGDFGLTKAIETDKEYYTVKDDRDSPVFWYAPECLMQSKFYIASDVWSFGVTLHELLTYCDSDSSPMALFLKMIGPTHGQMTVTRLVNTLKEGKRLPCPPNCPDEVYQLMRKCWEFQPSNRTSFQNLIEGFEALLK
T2 sequence (P52333 822-1111 limits assumed): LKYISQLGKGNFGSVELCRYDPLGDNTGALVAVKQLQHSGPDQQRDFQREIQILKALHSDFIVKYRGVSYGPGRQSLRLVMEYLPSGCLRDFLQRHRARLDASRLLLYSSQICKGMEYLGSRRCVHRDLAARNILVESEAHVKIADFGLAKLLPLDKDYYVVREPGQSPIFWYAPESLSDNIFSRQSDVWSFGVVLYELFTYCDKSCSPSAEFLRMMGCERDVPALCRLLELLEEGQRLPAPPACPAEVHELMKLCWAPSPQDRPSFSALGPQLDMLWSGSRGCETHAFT
T1 sequence (O60674 849-1124 limits assumed): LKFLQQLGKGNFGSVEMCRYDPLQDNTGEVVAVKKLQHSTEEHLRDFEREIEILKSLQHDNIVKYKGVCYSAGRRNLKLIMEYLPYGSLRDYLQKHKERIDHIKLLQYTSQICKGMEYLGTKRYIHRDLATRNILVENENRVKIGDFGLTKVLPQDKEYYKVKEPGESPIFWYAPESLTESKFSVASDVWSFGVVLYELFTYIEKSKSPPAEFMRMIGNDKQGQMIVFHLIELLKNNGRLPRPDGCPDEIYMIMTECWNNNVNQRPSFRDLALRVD
Chain of JAK2 kinase activity on STAT5 in TF1 cells (O60674 whole entry): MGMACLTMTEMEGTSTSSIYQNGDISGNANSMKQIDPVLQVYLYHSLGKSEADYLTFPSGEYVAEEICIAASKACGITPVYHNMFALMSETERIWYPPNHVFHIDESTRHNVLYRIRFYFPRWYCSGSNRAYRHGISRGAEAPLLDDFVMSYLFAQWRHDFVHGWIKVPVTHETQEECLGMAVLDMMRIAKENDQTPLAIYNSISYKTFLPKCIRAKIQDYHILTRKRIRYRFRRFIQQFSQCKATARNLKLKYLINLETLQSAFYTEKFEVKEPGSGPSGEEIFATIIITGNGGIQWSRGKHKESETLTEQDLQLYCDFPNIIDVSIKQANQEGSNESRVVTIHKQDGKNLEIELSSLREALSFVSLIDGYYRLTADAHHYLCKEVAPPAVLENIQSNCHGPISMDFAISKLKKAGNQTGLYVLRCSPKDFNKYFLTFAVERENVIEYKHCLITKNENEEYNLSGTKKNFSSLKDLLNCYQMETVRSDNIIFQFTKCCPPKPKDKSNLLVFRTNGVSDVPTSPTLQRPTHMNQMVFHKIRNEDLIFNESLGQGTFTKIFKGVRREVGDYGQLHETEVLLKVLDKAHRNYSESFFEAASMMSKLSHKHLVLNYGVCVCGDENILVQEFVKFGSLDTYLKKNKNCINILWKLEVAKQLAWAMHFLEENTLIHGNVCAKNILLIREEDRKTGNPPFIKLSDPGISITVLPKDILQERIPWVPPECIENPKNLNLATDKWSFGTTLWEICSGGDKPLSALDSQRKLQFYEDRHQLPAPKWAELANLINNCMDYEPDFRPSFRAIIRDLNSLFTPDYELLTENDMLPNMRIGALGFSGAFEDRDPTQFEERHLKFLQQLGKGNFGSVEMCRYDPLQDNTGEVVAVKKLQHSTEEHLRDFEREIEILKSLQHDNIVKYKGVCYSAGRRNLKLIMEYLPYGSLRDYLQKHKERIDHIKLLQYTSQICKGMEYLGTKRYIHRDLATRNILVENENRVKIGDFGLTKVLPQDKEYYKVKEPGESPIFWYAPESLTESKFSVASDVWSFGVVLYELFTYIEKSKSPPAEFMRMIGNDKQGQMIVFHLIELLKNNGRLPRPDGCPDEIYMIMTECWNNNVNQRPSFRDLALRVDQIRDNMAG
T4 sequence (P23458 875-1153 limits assumed): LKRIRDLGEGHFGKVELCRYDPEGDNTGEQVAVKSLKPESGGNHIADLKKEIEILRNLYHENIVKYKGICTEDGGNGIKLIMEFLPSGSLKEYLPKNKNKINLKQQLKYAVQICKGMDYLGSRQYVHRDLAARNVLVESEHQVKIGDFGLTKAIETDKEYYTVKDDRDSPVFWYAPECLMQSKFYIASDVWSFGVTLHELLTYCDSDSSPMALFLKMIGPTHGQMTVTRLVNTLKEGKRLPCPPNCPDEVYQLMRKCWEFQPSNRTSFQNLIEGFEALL

Compound | IC50 [1] | IC50 ([2]; JH1 kinase domain, ADP-Glo) | IC50 [3] | IC50 [4] | IC50 ([5]; JH1 kinase domain, ADP-Glo) | IC50 ([6]; JH1 kinase domain, ADP-Glo) | IC50 ([7]; JH1 kinase domain, ADP-Glo) | IC50 ([2]; JAK2 JH1, ADP-Glo) | IC50 ([5]; JAK3 JH1, ADP-Glo) | IC50 ([6]; TYK2 JH1, ADP-Glo) | IC50 ([7]; JAK1 JH1, ADP-Glo)
Cc1cnn2cc(-c3cnn(C)c3)nc(N3C[C@@H](C)[C@@](C#N)(C4CC4)C3=O)c12 [Example 186, (3R,4S)-3-cyclopropyl-4-methyl-1-(3-methyl-6-(1-methyl-1H-pyrazol-4-yl)pyrazolo[1,5-a]pyrazin-4-yl)-2-oxopyrrolidine-3-carbonitrile] | > 10000 nM | 1000 to 5000 nM | > 100 nM | > 10000 nM | 100 to 1000 nM | 50 to 100 nM | 1000 to 5000 nM | – | – | – | –
Cc1cn(-c2cc3c(N4C[C@@H](C)[C@@](C#N)(C5CC5)C4=O)ccnn3c2)cn1 [Example 341, (3R,4S)-3-cyclopropyl-4-methyl-1-(6-(4-methyl-1H-imidazol-1-yl)pyrrolo[1,2-b]pyridazin-4-yl)-2-oxopyrrolidine-3-carbonitrile] | 1000 to 5000 nM | – | > 100 nM | 5000 to 10000 nM | – | – | – | 100 to 1000 nM | 100 to 1000 nM | 5 to 20 nM | 100 to 1000 nM
C[C@@H]1CN(c2nc(-c3cnn(C(F)F)c3)cn3nccc23)C(=O)[C@]1(C#N)C1CC1 [Example 185, (3R,4S)-3-cyclopropyl-1-(6-(1-(difluoromethyl)-1H-pyrazol-4-yl)pyrazolo[1,5-a]pyrazin-4-yl)-4-methyl-2-oxopyrrolidine-3-carbonitrile] | 100 to 1000 nM | < 100 nM | 20 to 50 nM | 100 to 1000 nM | < 100 nM | < 5 nM | < 100 nM | – | – | – | –
C[C@@H]1CN(c2ccnn3cc(-c4cnn(-c5ccccn5)c4)cc23)C(=O)[C@]1(C#N)C1CC1 [Example 158, (3R,4S)-3-cyclopropyl-4-methyl-2-oxo-1-(6-(1-(pyridin-2-yl)-1H-pyrazol-4-yl)pyrrolo[1,2-b]pyridazin-4-yl)pyrrolidine-3-carbonitrile] | 1000 to 5000 nM | 100 to 1000 nM | > 100 nM | > 10000 nM | 100 to 1000 nM | < 5 nM | 100 to 1000 nM | – | – | – | –
C[C@@H]1CN(c2ccnn3cc(-c4cnn(CC#N)c4)cc23)C(=O)[C@]1(C#N)C1CC1 [Example 168, (3R,4S)-1-(6-(1-(cyanomethyl)-1H-pyrazol-4-yl)pyrrolo[1,2-b]pyridazin-4-yl)-3-cyclopropyl-4-methyl-2-oxopyrrolidine-3-carbonitrile] | 1000 to 5000 nM | < 100 nM | 50 to 100 nM | 1000 to 5000 nM | < 100 nM | < 5 nM | < 100 nM | – | – | – | –
C[C@@H]1CN(c2nc(-c3cnn(C4CC4)c3)cc3ncsc23)C(=O)[C@]1(C#N)C1CC1 [Example 357, (3R,4S)-3-cyclopropyl-1-(6-(1-cyclopropyl-1H-pyrazol-4-yl)thiazolo[5,4-c]pyridin-4-yl)-4-methyl-2-oxopyrrolidine-3-carbonitrile] | < 100 nM | – | 20 to 50 nM | < 100 nM | – | – | – | < 100 nM | < 100 nM | < 5 nM | < 100 nM
C[C@@H]1CN(c2nc(-c3ccc4nccn4c3)cn3nccc23)C(=O)[C@]1(C#N)C1CC1 [Example 263, (3R,4S)-3-cyclopropyl-1-(6-(imidazo[1,2-a]pyridin-6-yl)pyrazolo[1,5-a]pyrazin-4-yl)-4-methyl-2-oxopyrrolidine-3-carbonitrile trifluoroacetate] | < 100 nM | – | 20 to 50 nM | 100 to 1000 nM | – | – | – | < 100 nM | < 100 nM | < 5 nM | < 100 nM
C[C@@H]1CN(c2nc(-c3ccc(=O)n(C(F)F)c3)cn3nccc23)C(=O)[C@]1(C#N)C1CC1 [Example 210, (3R,4S)-3-cyclopropyl-1-(6-(1-(difluoromethyl)-6-oxo-1,6-dihydropyridin-3-yl)pyrazolo[1,5-a]pyrazin-4-yl)-4-methyl-2-oxopyrrolidine-3-carbonitrile] | 1000 to 5000 nM | 100 to 1000 nM | > 100 nM | 5000 to 10000 nM | < 100 nM | < 5 nM | < 100 nM | – | – | – | –
CC(=O)Nc1cccc(-c2cc3c(N4C[C@@H](C)[C@@](C#N)(C5CC5)C4=O)ccnn3c2)n1 [Example 131, N-(6-(4-((3R,4S)-3-cyano-3-cyclopropyl-4-methyl-2-oxopyrrolidin-1-yl)pyrrolo[1,2-b]pyridazin-6-yl)pyridin-2-yl)acetamide trifluoroacetate] | 100 to 1000 nM | 100 to 1000 nM | 50 to 100 nM | 1000 to 5000 nM | 100 to 1000 nM | < 5 nM | < 100 nM | – | – | – | –
Cc1cnc(-c2cc3c(N4C[C@@H](C)[C@@](C#N)(C5CC5)C4=O)ccnn3c2)s1 [Example 118, (3R,4S)-3-cyclopropyl-4-methyl-1-(6-(5-methylthiazol-2-yl)pyrrolo[1,2-b]pyridazin-4-yl)-2-oxopyrrolidine-3-carbonitrile trifluoroacetate] | 5000 to 10000 nM | 100 to 1000 nM | > 100 nM | > 10000 nM | 100 to 1000 nM | 5 to 20 nM | 100 to 1000 nM | – | – | – | –
C[C@@H]1CN(c2ncnn3cc(-c4cnn(C)c4)cc23)C(=O)[C@]1(C#N)C1CC1 [Example 180, (3R,4S)-3-cyclopropyl-4-methyl-1-(6-(1-methyl-1H-pyrazol-4-yl)pyrrolo[2,1-f][1,2,4]triazin-4-yl)-2-oxopyrrolidine-3-carbonitrile] | 1000 to 5000 nM | 5000 to 10000 nM | > 100 nM | 5000 to 10000 nM | > 10000 nM | > 100 nM | > 10000 nM | – | – | – | –
C[C@@H]1CN(c2ccnn3cc(-c4ccc(C(F)(F)F)nc4)cc23)C(=O)[C@]1(C#N)C1CC1 [Example 74, (3R,4S)-3-cyclopropyl-4-methyl-2-oxo-1-(6-(6-(trifluoromethyl)pyridin-3-yl)pyrrolo[1,2-b]pyridazin-4-yl)pyrrolidine-3-carbonitrile] | 5000 to 10000 nM | 1000 to 5000 nM | > 100 nM | > 10000 nM | 100 to 1000 nM | 5 to 20 nM | 100 to 1000 nM | – | – | – | –
C[C@@H]1CN(c2nc(-c3cncc(O)c3)cn3nccc23)C(=O)[C@]1(C#N)C1CC1 [Example 258, (3R,4S)-3-cyclopropyl-1-(6-(5-hydroxypyridin-3-yl)pyrazolo[1,5-a]pyrazin-4-yl)-4-methyl-2-oxopyrrolidine-3-carbonitrile trifluoroacetate] | 1000 to 5000 nM | – | > 100 nM | > 10000 nM | – | – | – | 100 to 1000 nM | < 100 nM | 5 to 20 nM | < 100 nM
C[C@H]1CN(c2ccnn3cc(-c4cnn(C)c4)cc23)C(=O)[C@]1(C#N)C1CC1 [Example 22, (3R,4R)-3-cyclopropyl-4-methyl-1-(6-(1-methyl-1H-pyrazol-4-yl)pyrrolo[1,2-b]pyridazin-4-yl)-2-oxopyrrolidine-3-carbonitrile] | > 10000 nM | 1000 to 5000 nM | > 100 nM | > 10000 nM | 1000 to 5000 nM | 50 to 100 nM | 1000 to 5000 nM | – | – | – | –
C[C@@H]1CN(c2nc(-c3ccc4cnn(C)c4c3)cn3nccc23)C(=O)[C@]1(C#N)C1CC1 [Example 259, (3R,4S)-3-cyclopropyl-4-methyl-1-(6-(1-methyl-1H-indazol-6-yl)pyrazolo[1,5-a]pyrazin-4-yl)-2-oxopyrrolidine-3-carbonitrile trifluoroacetate] | < 100 nM | – | 5 to 20 nM | 100 to 1000 nM | – | – | – | < 100 nM | < 100 nM | < 5 nM | < 100 nM
C[C@@H]1CN(c2c[nH]c3ncc(-c4cnn(C)c4)cc23)C(=O)[C@]1(C#N)C1CC1 [Example 288, (3R,4S)-3-cyclopropyl-4-methyl-1-(5-(1-methyl-1H-pyrazol-4-yl)-1H-pyrrolo[2,3-b]pyridin-3-yl)-2-oxopyrrolidine-3-carbonitrile] | 1000 to 5000 nM | – | 50 to 100 nM | 1000 to 5000 nM | – | – | – | < 100 nM | 100 to 1000 nM | 5 to 20 nM | 100 to 1000 nM
